The structures appear in SMILES notation.

One may read the Km as the concentration of substrate that gives half-maximal velocity.

The test system of test [1] is LaTYDC1. Description: HPLC of tyramine formed. Format: biochemical, Lycoris aurea. To be noted: pyridoxal-5-phosphate, 50 mM Tris-HCl pH 8.0, 37 °C; GST fusion; Table 1 labels this row 'Tyramine' and prints error ± 0.12.
The test system of test [2] is LaTYDC1. The test is described as follows: HPLC of dopamine formed. Format: biochemical, Lycoris aurea. To be noted: pyridoxal-5-phosphate, 50 mM Tris-HCl pH 8.0, 37 °C; GST fusion. An excerpt:
HPLC of dopamine formed on LaTYDC1

On to `N[C@@H](Cc1ccc(O)cc1)C(=O)O` [L-tyrosine], for which the Km with LaTYDC1 [1] amounted to 602 ± 38 µM.

Consider `N[C@@H](Cc1ccc(O)c(O)c1)C(=O)O` [L-Dopa, 3,4-dihydroxy-L-phenylalanine], for which the Km in the test with LaTYDC1 [2] is 966 ± 79 µM.

For the origin of these results see PMC6474336, “Cloning and characterization of a tyrosine decarboxylase involved in the biosynthesis of galanthamine in Lycoris aurea” (PeerJ, 2019).
